Source: ChEMBL document CHEMBL1123364, “Selective thromboxane synthetase inhibitors. 4. 2-(1H-imidazol-1-ylmethyl) carboxylic acids of benzo[b]furan, benzo[b]thiophene, indole, and naphthalene” (J Med Chem, 1986)

Legend:
Thromboxane-A synthase = biological target: T1, Thromboxane-A synthase (Homo sapiens, UniProt P24557); experiment: Inhibition of TXA2 synthetase from human platelets
T1 sequence (P24557 whole entry): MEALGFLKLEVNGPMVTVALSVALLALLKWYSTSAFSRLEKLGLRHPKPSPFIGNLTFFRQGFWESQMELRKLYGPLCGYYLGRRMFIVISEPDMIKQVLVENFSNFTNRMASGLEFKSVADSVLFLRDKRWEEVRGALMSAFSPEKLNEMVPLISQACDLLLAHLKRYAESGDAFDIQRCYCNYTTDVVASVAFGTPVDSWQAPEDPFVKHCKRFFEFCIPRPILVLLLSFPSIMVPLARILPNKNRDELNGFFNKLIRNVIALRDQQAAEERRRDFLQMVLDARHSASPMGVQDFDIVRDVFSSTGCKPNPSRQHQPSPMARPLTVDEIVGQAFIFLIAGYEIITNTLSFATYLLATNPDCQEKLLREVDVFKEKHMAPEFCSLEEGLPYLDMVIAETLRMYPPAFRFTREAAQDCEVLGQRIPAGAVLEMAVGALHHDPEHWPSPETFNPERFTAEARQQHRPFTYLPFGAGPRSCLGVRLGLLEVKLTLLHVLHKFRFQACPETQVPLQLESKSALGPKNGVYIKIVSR

Cyclooxygenase = biological target: T2, Cyclooxygenase (Rattus norvegicus, UniProt P35355+Q63921); experiment: Inhibition of cyclooxygenase from RBL-1 cells.; format: cell-based
T2 sequence (P35355 whole entry): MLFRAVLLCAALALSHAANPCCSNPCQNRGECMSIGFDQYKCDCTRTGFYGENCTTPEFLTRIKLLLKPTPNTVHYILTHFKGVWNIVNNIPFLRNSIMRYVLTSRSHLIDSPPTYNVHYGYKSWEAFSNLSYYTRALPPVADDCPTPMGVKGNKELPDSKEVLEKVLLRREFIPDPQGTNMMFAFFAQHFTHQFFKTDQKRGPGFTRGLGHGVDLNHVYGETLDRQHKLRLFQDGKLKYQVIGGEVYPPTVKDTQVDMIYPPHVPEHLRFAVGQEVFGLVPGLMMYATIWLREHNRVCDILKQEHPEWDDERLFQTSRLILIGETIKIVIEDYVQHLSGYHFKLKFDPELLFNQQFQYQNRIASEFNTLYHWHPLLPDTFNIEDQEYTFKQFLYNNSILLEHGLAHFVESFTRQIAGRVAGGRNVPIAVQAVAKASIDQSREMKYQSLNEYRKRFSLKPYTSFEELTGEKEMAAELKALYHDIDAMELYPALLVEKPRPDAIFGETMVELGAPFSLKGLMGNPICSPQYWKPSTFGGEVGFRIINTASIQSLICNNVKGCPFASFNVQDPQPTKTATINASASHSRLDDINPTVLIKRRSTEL
T2 sequence (Q63921 whole entry): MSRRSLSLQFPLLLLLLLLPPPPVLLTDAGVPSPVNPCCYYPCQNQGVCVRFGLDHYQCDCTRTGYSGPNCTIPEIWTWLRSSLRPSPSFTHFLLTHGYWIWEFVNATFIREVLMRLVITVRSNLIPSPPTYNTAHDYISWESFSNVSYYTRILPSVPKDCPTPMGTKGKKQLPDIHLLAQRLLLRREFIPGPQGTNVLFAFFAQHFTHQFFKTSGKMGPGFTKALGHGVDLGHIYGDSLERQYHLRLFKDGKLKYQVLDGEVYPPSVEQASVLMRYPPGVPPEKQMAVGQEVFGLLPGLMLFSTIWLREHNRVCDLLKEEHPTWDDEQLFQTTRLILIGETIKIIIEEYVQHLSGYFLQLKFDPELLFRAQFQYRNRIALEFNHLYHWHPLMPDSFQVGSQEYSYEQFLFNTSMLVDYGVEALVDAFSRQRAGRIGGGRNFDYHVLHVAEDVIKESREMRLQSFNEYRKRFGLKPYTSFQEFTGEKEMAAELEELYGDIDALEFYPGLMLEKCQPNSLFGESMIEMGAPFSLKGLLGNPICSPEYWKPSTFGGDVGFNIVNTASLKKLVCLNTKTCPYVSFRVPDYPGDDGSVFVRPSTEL

[1] = Ionisation constant in presence of base; format: ADME
[2] = biological target: T3, Cytochrome P450 11B1, mitochondrial (Rattus norvegicus, UniProt P15393); experiment: Inhibition of rat adrenal 11-beta-hydroxylase
T3 sequence (P15393 whole entry): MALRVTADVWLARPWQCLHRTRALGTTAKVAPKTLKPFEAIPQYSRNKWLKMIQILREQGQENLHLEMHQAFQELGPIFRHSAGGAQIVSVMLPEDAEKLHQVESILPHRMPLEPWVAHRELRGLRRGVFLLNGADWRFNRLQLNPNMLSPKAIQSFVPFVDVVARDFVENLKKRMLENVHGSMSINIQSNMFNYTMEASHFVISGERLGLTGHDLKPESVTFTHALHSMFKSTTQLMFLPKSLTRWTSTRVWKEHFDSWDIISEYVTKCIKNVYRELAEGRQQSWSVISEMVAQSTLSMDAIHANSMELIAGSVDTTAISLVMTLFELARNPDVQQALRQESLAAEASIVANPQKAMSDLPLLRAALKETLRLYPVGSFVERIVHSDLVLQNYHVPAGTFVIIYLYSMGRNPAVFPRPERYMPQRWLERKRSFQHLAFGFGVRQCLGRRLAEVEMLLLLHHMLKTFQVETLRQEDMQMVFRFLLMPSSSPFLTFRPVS

[3] = Ionisation constant in presence of acid; format: ADME

Cc1c(Cn2ccnc2)[nH]c2ccc(C(=O)O)cc12
IC50 (Thromboxane-A synthase): 37 nM

O=C(O)c1ccc2cc(Cn3ccnc3)ccc2c1
IC50 (Thromboxane-A synthase): 34 nM

O=C(O)c1ccc2sc(Cn3ccnc3)c(Cl)c2c1
IC50 (Cyclooxygenase): > 0.0002 M | IC50 (Thromboxane-A synthase): 22 nM

O=C(O)c1cccc2cc(Cn3ccnc3)ccc12
IC50 (Thromboxane-A synthase): 71 nM

Cc1c(Cn2ccnc2)sc2ccc(C(=O)O)cc12
IC50 (Cyclooxygenase): > 0.0002 M | IC50 (Thromboxane-A synthase): 17 nM | pKa [1]: 6.58 | IC50 [2]: > 100000 nM | pKa [3]: 3.82

O=C(O)c1ccc2oc(Cn3ccnc3)c(Br)c2c1
IC50 (Thromboxane-A synthase): 30 nM

Cc1c(Cn2ccnc2)oc2ccc(C(=O)O)cc12
IC50 (Cyclooxygenase): > 0.0002 M | IC50 (Thromboxane-A synthase): 34 nM | pKa [1]: 6.08 | IC50 [2]: 100000 nM | pKa [3]: 3.91

CSc1c(Cn2ccnc2)sc2ccc(C(=O)O)cc12
IC50 (Thromboxane-A synthase): 43 nM

Cc1c(Cn2ccnc2)n(C)c2ccc(C(=O)O)cc12
IC50 (Cyclooxygenase): > 0.0002 M | IC50 (Thromboxane-A synthase): 32 nM | pKa [1]: 6.32 | pKa [3]: 4.08

O=C(O)c1ccc2oc(Cn3ccnc3)cc2c1
IC50 (Thromboxane-A synthase): 12 nM

O=C(O)c1ccc2sc(Cn3ccnc3)cc2c1
IC50 (Cyclooxygenase): > 0.0002 M | IC50 (Thromboxane-A synthase): 15 nM | pKa [1]: 6.34 | IC50 [2]: > 100000 nM | pKa [3]: 3.9

Cc1c(Cn2ccnc2)sc2cc(C(=O)O)ccc12
IC50 (Cyclooxygenase): > 0.0002 M | IC50 (Thromboxane-A synthase): 18 nM

O=C(O)c1ccc2c(Cl)c(Cn3ccnc3)sc2c1
IC50 (Cyclooxygenase): > 0.0002 M | IC50 (Thromboxane-A synthase): 40 nM

O=C(O)c1ccc2sc(Cn3ccnc3)c(Br)c2c1
IC50 (Thromboxane-A synthase): 27 nM | IC50 [2]: > 100000 nM

O=C(O)c1ccc2oc(Cn3ccnc3)c(Cl)c2c1
IC50 (Cyclooxygenase): > 0.0002 M | IC50 (Thromboxane-A synthase): 31 nM | IC50 [2]: > 100000 nM

O=C(O)c1ccc(OCCn2ccnc2)cc1 [DAZOXIBEN]
IC50 [2]: > 100000 nM
